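Dose response: 5 concentrations. Exposure: 48 h. Format: 96-well plates. Endpoint: linear interpolation; highest concentration if not reached. At the TGI there is no net growth.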
What was measured:
Test in all cases: NCI tumour cell line growth inhibition, 48 h
A498 renal = test system: A498 renal
A549 NSCLC = test system: A549 NSCLC
CAKI-1 renal = test system: CAKI-1 renal
CCRF-CEM leukemia = test system: CCRF-CEM leukemia
COLO 205 colon = test system: COLO 205 colon
DLD-1 colon = test system: DLD-1 colon
DMS 114 small cell lung = test system: DMS 114 small cell lung
DMS 273 small cell lung = test system: DMS 273 small cell lung
EKVX NSCLC = test system: EKVX NSCLC
HCC-2998 colon = test system: HCC-2998 colon
HCT-116 colon = test system: HCT-116 colon
HCT-15 colon = test system: HCT-15 colon
HL-60(TB) leukemia = test system: HL-60(TB) leukemia
HOP-18 NSCLC = test system: HOP-18 NSCLC
HOP-62 NSCLC = test system: HOP-62 NSCLC
HOP-92 NSCLC = test system: HOP-92 NSCLC
HT29 colon = test system: HT29 colon
IGROV1 ovarian = test system: IGROV1 ovarian
K-562 leukemia = test system: K-562 leukemia
KM12 colon = test system: KM12 colon
KM20L2 colon = test system: KM20L2 colon
LOX IMVI melanoma = test system: LOX IMVI melanoma
M19-MEL melanoma = test system: M19-MEL melanoma
MALME-3M melanoma = test system: MALME-3M melanoma
MCF7 breast = test system: MCF7 breast
MOLT-4 leukemia = test system: MOLT-4 leukemia
NCI-H226 lung = test system: NCI-H226 lung
NCI-H23 lung = test system: NCI-H23 lung
NCI-H460 lung = test system: NCI-H460 lung
NCI-H522 lung = test system: NCI-H522 lung
NCI/ADR-RES ovarian = test system: NCI/ADR-RES ovarian
OVCAR-3 ovarian = test system: OVCAR-3 ovarian
OVCAR-4 ovarian = test system: OVCAR-4 ovarian
OVCAR-5 ovarian = test system: OVCAR-5 ovarian
OVCAR-8 ovarian = test system: OVCAR-8 ovarian
P388 leukemia = test system: P388 leukemia
P388/ADR leukemia = test system: P388/ADR leukemia
RPMI-8226 leukemia = test system: RPMI-8226 leukemia
RXF 393 renal = test system: RXF 393 renal
SF-268 CNS = test system: SF-268 CNS
SF-295 CNS = test system: SF-295 CNS
SF-539 CNS = test system: SF-539 CNS
SK-MEL-2 melanoma = test system: SK-MEL-2 melanoma
SK-MEL-28 melanoma = test system: SK-MEL-28 melanoma
SK-MEL-5 melanoma = test system: SK-MEL-5 melanoma
SK-OV-3 ovarian = test system: SK-OV-3 ovarian
SN12C renal = test system: SN12C renal
SN12K1 renal = test system: SN12K1 renal
SNB-19 CNS = test system: SNB-19 CNS
SNB-75 CNS = test system: SNB-75 CNS
SNB-78 CNS = test system: SNB-78 CNS
SW-620 colon = test system: SW-620 colon
U251 CNS = test system: U251 CNS
UACC-257 melanoma = test system: UACC-257 melanoma
UACC-62 melanoma = test system: UACC-62 melanoma
UO-31 renal = test system: UO-31 renal
XF 498 CNS = test system: XF 498 CNS

CC[C@@]1(O)C[C@H](OC2CC(N(C)C)C(OC3CC(O)C(OC4CC(O)C(O)C(C)O4)C(C)O3)C(C)O2)c2c(cc3c(c2O)C(=O)c2c(O)ccc(O)c2C3=O)[C@H]1C(=O)OC (some centres not stated) was tested, and the TGI (A498 renal) was 89.1 nM, the TGI (A549 NSCLC) was 19800 nM and the TGI (CAKI-1 renal) was 142 nM. For the same compound, the TGI (CCRF-CEM leukemia) was 1810 nM, the TGI (COLO 205 colon) was 390 nM and the TGI (DLD-1 colon) was 3590 nM. It also gave a TGI (DMS 114 small cell lung) of 959 nM, a TGI (DMS 273 small cell lung) of 482 nM and a TGI (EKVX NSCLC) of 982 nM. For the same compound, the TGI (HCC-2998 colon) was 662 nM, the TGI (HCT-116 colon) was 118 nM and the TGI (HCT-15 colon) was 2660 nM. For the same compound, the TGI (HL-60(TB) leukemia) was 1370 nM, the TGI (HOP-18 NSCLC) was 1320 nM and the TGI (HOP-62 NSCLC) was 500 nM. It also gave a TGI (HOP-92 NSCLC) of 867 nM, a TGI (HT29 colon) of 871 nM and a TGI (IGROV1 ovarian) of 3840 nM. It also gave a TGI (K-562 leukemia) of 1700 nM, a TGI (KM12 colon) of 3030 nM and a TGI (KM20L2 colon) of 2620 nM. The TGI (LOX IMVI melanoma) was 3670 nM, the TGI (M19-MEL melanoma) was 210 nM and the TGI (MALME-3M melanoma) was 196 nM. The TGI (MCF7 breast) was 959 nM, the TGI (MOLT-4 leukemia) was 103 nM and the TGI (NCI-H226 lung) was 203 nM. It also gave a TGI (NCI-H23 lung) of 314 nM, a TGI (NCI-H460 lung) of 103 nM and a TGI (NCI-H522 lung) of 153 nM. It also gave a TGI (NCI/ADR-RES ovarian) of 10200 nM, a TGI (OVCAR-3 ovarian) of 347 nM and a TGI (OVCAR-4 ovarian) of 564 nM. For the same compound, the TGI (OVCAR-5 ovarian) was 3100 nM, the TGI (OVCAR-8 ovarian) was 1150 nM and the TGI (P388 leukemia) was 89.2 nM. For the same compound, the TGI (P388/ADR leukemia) was 2230 nM, the TGI (RPMI-8226 leukemia) was 385 nM and the TGI (RXF 393 renal) was 112 nM. It also gave a TGI (SF-268 CNS) of 1490 nM, a TGI (SF-295 CNS) of 654 nM and a TGI (SF-539 CNS) of 341 nM. For the same compound, the TGI (SK-MEL-2 melanoma) was 124 nM, the TGI (SK-MEL-28 melanoma) was 293 nM and the TGI (SK-MEL-5 melanoma) was 135 nM. It also gave a TGI (SK-OV-3 ovarian) of 3040 nM, a TGI (SN12C renal) of 2090 nM and a TGI (SN12K1 renal) of 67.8 nM. For the same compound, the TGI (SNB-19 CNS) was 4300 nM, the TGI (SNB-75 CNS) was 390 nM and the TGI (SNB-78 CNS) was 2100 nM. For the same compound, the TGI (SW-620 colon) was 1940 nM, the TGI (U251 CNS) was 3180 nM and the TGI (UACC-257 melanoma) was 184 nM. For the same compound, the TGI (UACC-62 melanoma) was 106 nM, the TGI (UO-31 renal) was 1220 nM and the TGI (XF 498 CNS) was 225 nM.

From PubChem BioAssay (NCI)
